# Assays:
# [1] = tested on: nit attached to human hair strand; assay: Force required to dislodge a nit from a treated hair strand with a nit comb (INSTRON 1123 / CORREX Gram Gage); parameters: species or system lice; details: in vitro studies
# Description: FIG. 1 is a diagram of the test setup whereby the force required to dislodge a nit from a human hair strand with a nit comb was measured.
# FIG. 2 is a view showing the positioning of the nit and hair strand between the teeth of the comb shown in the test setup of FIG. 1.
# The nit-loosening effectiveness of the novel compositions and the methods of treatment employing them were tested extensively using an INSTRON® 1123 Universal Testing Instrument (Instron Corp. Canton, Mass.). This instrument, in conjunction with a CORREX® Gram Gage (SPI, Switzerland), measures the force required to loosen nits from a hair shaft and records it on paper.
# Laboratory tests were performed to measure the decrease in the combing force required to remove nits from hair strands treated with various compositions of the invention as compared with controls and with prior art egg-loosening compositions.
# 1. Hair strand 10 with nit 12 attached.
# 2. Fine tooth plastic nit comb 14.
# 3. Controls and test compositions.
# 4. INSTRON® 1123 Universal Testing Instrument 16 (Instron Corp., Canton, Mass.) with a 0-50 kg load cell 18.
# 5. CORREX® Gram Gage 20-2-15 g with flat tip (SPI, Switzerland).
# 6. Clamp plate assembly 22.
# 7. […]
# e) Start the Instron, and the force required to loosen the nits will be recorded by the paper chart recorder 30, and can also be read on the Gram Gage 20. […]
# [2] = cited from earlier work
smiles,measurement,setting,value
"CO[C@H]1CO[C@H]2[C@@H]1OC[C@H]2OC [Dimethyl isosorbide, 1,4:3,6 dianhydro-2,5-di-o-methyl-D-glucitol]",nit-loosening effectiveness (in words),[1],good nit-loosening utility
same,solubility (in words),[2],water and oil-soluble
